Test results: PubChem BioAssay (NCI)
Values joined by “and” are separate entries in the source; they are usually repeats but may differ in a detail not shown here. Equal entries are not always repeated.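 Method: 48-hour compound exposure of cells in 96-well plates, five concentrations, linear interpolation of endpoints. GI50 marks 50% less growth. TGI marks complete inhibition of growth.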

Tests used:
Experiment in all cases: NCI-60 cell line screen, 48 h
SN12C renal = test system: SN12C renal
NCI-H23 lung = test system: NCI-H23 lung
M14 melanoma = test system: M14 melanoma
UACC-257 melanoma = test system: UACC-257 melanoma
SR leukemia = test system: SR leukemia
NCI-H460 lung = test system: NCI-H460 lung
SW-620 colon = test system: SW-620 colon
CAKI-1 renal = test system: CAKI-1 renal
SK-MEL-5 melanoma = test system: SK-MEL-5 melanoma
HOP-92 NSCLC = test system: HOP-92 NSCLC

| SMILES | GI50 (SN12C renal) | TGI (SN12C renal) | GI50 (NCI-H23 lung) | TGI (NCI-H23 lung) | GI50 (M14 melanoma) | TGI (M14 melanoma) | GI50 (UACC-257 melanoma) | TGI (UACC-257 melanoma) | GI50 (SR leukemia) | TGI (SR leukemia) | GI50 (NCI-H460 lung) | TGI (NCI-H460 lung) | GI50 (SW-620 colon) | TGI (SW-620 colon) | GI50 (CAKI-1 renal) | TGI (CAKI-1 renal) | GI50 (SK-MEL-5 melanoma) | TGI (SK-MEL-5 melanoma) | GI50 (HOP-92 NSCLC) | TGI (HOP-92 NSCLC) |
| --- | --- | --- | --- | --- | --- | --- | --- | --- | --- | --- | --- | --- | --- | --- | --- | --- | --- | --- | --- | --- |
| Cc1sc(NC2=NC(=O)/C(=C\c3ccccc3)S2)nc1-c1nc(NC2=NC(=O)/C(=C\c3ccccc3)S2)sc1C | 11.4 µM | 29.8 µM | 15.4 µM | > 41.4 µM | 9.51 µM | 23.6 µM | 13.7 µM | > 38.7 µM | 7.49 µM | 21.4 µM | 15.5 µM | > 50 µM | 16.7 µM | > 50 µM | 12.1 µM | 33.2 µM | 13.1 µM | > 34.5 µM | 12 µM | > 36.1 µM |
| O=C(CN1C(=O)S/C(=C\C(Cl)=C\c2ccccc2)C1=O)NCCc1ccc(O)cc1 | 2.34 µM | 9.79 µM | 2.29 µM | 6.15 µM | 1.65 µM | 4.11 µM | 2.58 µM | 14.5 µM | 0.955 µM | > 100 µM | 2 µM | 6.12 µM | 1.82 µM | 4.22 µM | 1.78 µM | 3.76 µM | 1.8 µM | 3.4 µM | 1.58 µM | 5.05 µM |
| OCC1OC2OC3C(CO)OC(OC4C(CO)OC(OC5C(CO)OC(OC6C(CO)OC(OC7C(CO)OC(OC1C(O)C2O)C(O)C7O)C(O)C6O)C(O)C5O)C(O)C4O)C(O)C3O (centres undefined) (tested in a mixture with another compound) |  | > 100 µM |  | > 100 µM |  | > 100 µM |  | > 100 µM |  | 34.3 µM |  | > 100 µM |  | > 100 µM |  | > 100 µM |  | 97.8 µM |  | > 100 µM |
| NC(=O)CCC(NC(=O)Cc1ccccc1)C(=O)O (centres undefined) (tested in a mixture with another compound) |  | > 8130 µM |  | > 8130 µM |  | > 8130 µM |  |  |  | > 8130 µM |  |  |  | > 8130 µM |  | > 8130 µM |  | > 8130 µM |  | > 8130 µM |
| CCN(CC)CCCCNc1ncc2cc(-c3cc(OC)cc(OC)c3)c(NC(=O)NC(C)(C)C)nc2n1 | 3.52 µM | 15.6 µM | 11.1 µM | 30.1 µM | 3.1 µM | 9.65 µM | 1.78 µM | 3.68 µM | 2.11 µM | 5.68 µM | 6.85 µM | 20.8 µM | 8.15 µM | 23 µM | 3.99 µM | 17 µM | 6.19 µM | 18 µM | 2.11 µM | 18.4 µM |
| COc1ccc(-c2nn(-c3cccc(NC(=O)c4cccc(C(F)(F)F)c4)c3)cc2-c2ccncc2)cc1Cl | 5.06 µM | > 100 µM | 3.58 µM | 92.8 µM | 2.23 µM | 25.3 µM | 6.67 µM | 61.7 µM | 0.605 µM | 5.44 µM | 2.95 µM | > 100 µM | 4.07 µM | > 100 µM | 2.57 µM | > 100 µM | 1.06 µM | 4.4 µM | 1 µM | 6.54 µM |
| OCC1OC(n2cnc3c2NC=NC[C@H]3O)CC1O (some centres undefined) | > 588 µM | 500 µM and > 588 µM | > 588 µM | 500 µM and > 588 µM | > 588 µM | 500 µM and > 588 µM |  | 468 µM |  | 443 µM | > 588 µM | 480 µM and > 588 µM | 478 µM and > 588 µM | 500 µM and > 588 µM | 351 µM and > 588 µM | 495 µM and > 588 µM | > 588 µM | 499 µM and > 588 µM | > 588 µM | 454 µM and > 588 µM |
| CCN(CC)CCCC(Cc1ccccc1)Nc1c2ccc(Cl)cc2nc2ccc(OC)cc12 (centres undefined) | 2.92 µM | 10.2 µM | 2.9 µM | 8.47 µM | 1.82 µM | 3.51 µM | 1.89 µM | 3.44 µM | 1.43 µM | 4.25 µM | 2.44 µM | 5.92 µM | 1.77 µM | 3.81 µM | 2.1 µM | 5.9 µM |  |  | 2.1 µM | 4.9 µM |
| O=C(Cc1ccccc1)NC(c1ccc(Cl)cc1)c1c(O)ccc2ccccc12 (centres undefined) | 2.99 µM | 11.5 µM | 2.92 µM | 9.2 µM |  |  | 2.77 µM | 10.4 µM | 2.56 µM | 10.1 µM | 2.66 µM | 7.61 µM | 3.22 µM | 13.4 µM | 2.52 µM | 10.2 µM | 1.73 µM | 3.2 µM | 2.77 µM | 7.24 µM |
| CC(=O)c1ccc(NC(=O)C(=O)C(C(=O)c2ccc(Cl)c(Cl)c2)C2OC(=O)c3ccccc32)cc1 (centres undefined) |  | 59.9 µM |  | 32.2 µM |  | 41 µM |  | > 100 µM |  | > 100 µM |  | 33.5 µM |  | > 100 µM |  | > 100 µM |  |  |  | 78.4 µM |
| CSC1=Nc2c(c(C)c(C)n2COC(CO)CO)C2=NC(=O)CC(C)N12 (centres undefined) | > 100 µM | > 100 µM | > 100 µM | > 100 µM |  |  | > 100 µM | > 100 µM | > 100 µM | > 100 µM | > 100 µM | > 100 µM | > 100 µM | > 100 µM | > 100 µM | > 100 µM | > 100 µM | > 100 µM | > 100 µM | > 100 µM |
| COC1=CC(c2ccc[nH]2)=N/C1=C\c1[nH]c(C)c(C(C)=O)c1C | 4.46 µM | > 100 µM | 5.12 µM | > 100 µM |  |  | 3.44 µM | > 100 µM |  | 0.379 µM | 0.451 µM | > 22.8 µM | 0.0605 µM |  | 0.63 µM | > 100 µM | 0.768 µM | 3.07 µM | 0.671 µM | 5.13 µM |
| COc1ccc(-c2nc(N3CCOCC3)c3sc(CN(C)c4ncc(C(=O)NO)cn4)cc3n2)cn1 | 0.0168 µM | 1.27 µM | 0.0103 µM | 0.601 µM |  |  | < 0.01 µM | 0.0466 µM | < 0.01 µM | 0.234 µM | < 0.01 µM | 10.9 µM | < 0.01 µM | 1.41 µM | 0.0176 µM | 0.0436 µM |  |  | 0.0147 µM | 0.0508 µM |
| COc1cc(-n2cnc(-c3ccc(Cl)cc3)c2)cc(OC)c1OC | > 100 µM | > 100 µM | 17.9 µM | 35 µM | 73 µM | > 100 µM | 18.3 µM | 34.1 µM | 25.4 µM | 62.2 µM | 18.6 µM | 36.8 µM | > 100 µM | > 100 µM | 24.9 µM | > 100 µM | 67.8 µM | > 100 µM |  |  |
